Assay results reported in ChEMBL document CHEMBL1201862, “PubChem BioAssay data set” (2004).
Activity calls are given as the source filed them.

What was measured:
[1] = inhibitors of intracellular T. cruzi replication, confirmation, NIH3T3 host cells, beta-gal luminescence (AID 2044); assay type: functional, cell-based;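 further: intracellular parasites grown in NIH/3T3 mouse fibroblasts as host cells; luminescent beta-galactosidase reporter signal from transgenic T. cruzi replicating inside host cells; inhibitors lower the luminescence signal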
[2] = growth suppression of PTEN-null colon cells, dose response, cell-based, HCT116 PTEN knockout (AID 1047); assay type: functional;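 further: HCT116 colon tumor cells with PTEN knocked out; cells exposed to compound for 60 hours before readout; potency for loss of cell viability measured by luminescence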
[3] = cytotoxicity toward NIH3T3 fibroblasts, dose response, counter-screen, cell-based, ATP luminescence, mouse fibroblasts (AID 2010); assay type: functional;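 further: cells exposed to compound for about 90 hours before reading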
[4] = growth suppression of beta-catenin-knockout colon cells, dose response, cell-based, HCT116, human colon tumor (AID 1045); assay type: functional;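 further: HCT116 colon tumor cells with beta catenin knocked out; cells exposed to compound for 60 hours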
[5] = target: T1, DNA repair protein RAD52 homolog (Homo sapiens, UniProt P43351); assay type: functional, biochemical
T1 sequence (P43351 whole entry): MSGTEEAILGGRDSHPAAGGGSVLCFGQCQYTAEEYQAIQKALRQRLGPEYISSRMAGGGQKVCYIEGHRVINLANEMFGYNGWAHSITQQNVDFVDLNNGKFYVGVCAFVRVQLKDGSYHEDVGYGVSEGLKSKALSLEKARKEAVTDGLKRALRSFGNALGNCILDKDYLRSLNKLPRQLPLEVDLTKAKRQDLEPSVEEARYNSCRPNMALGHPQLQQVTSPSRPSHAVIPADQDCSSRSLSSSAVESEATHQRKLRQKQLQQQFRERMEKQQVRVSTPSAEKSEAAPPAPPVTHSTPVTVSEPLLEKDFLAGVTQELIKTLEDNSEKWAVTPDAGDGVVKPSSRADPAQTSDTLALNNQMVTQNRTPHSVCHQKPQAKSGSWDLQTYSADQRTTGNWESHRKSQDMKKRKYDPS

[6] = P. falciparum Dd2 growth inhibitors, dose response, SYBR Green, dry powder samples, set 9 (AID 1159568); assay type: functional, cell-based
Paired box protein Pax-8 = Paired box protein Pax-8 (Homo sapiens, UniProt Q06710); assay: inhibitors of PAX8-driven TPO luciferase reporter, dose response, RMG-I cells, cherry-pick (AID 687027); assay type: functional, cell-based;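 further: luciferase reporter driven by Pax8 target thyroperoxidase promoter measured by SteadyGlo luminescence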
[7] = non-specific cell cytotoxicity, dose response, cytotoxicity control for PAX8 inhibitor project, plate reader, dry powder samples (AID 743021); assay type: functional, cell-based
[8] = cytotoxicity in OVCAR8 ovarian cancer cells, dose response, PAX8 project, cell-based, plate reader, dry powder samples (AID 743197); assay type: functional; details: OVCAR-8
[9] = IOSE-T80 ovarian epithelial cell cytotoxicity, dose response, cytotoxicity control for PAX8 inhibitor project, plate reader, dry powder samples (AID 743045); assay type: functional, cell-based
[10] = NIH:OVCAR-3 ovarian cancer cell cytotoxicity, dose response, PAX8 inhibitor project, plate reader, dry powder samples (AID 743044); assay type: functional, cell-based
[11] = IGROV1 ovarian cancer cell cytotoxicity, dose response, PAX8 inhibitor project, plate reader, dry powder samples (AID 743043); assay type: functional, cell-based; details: IGROV-1
[12] = Luminescence Cell-Based Dose Response HTS to Identify Inhibitors of 5'UTR Stem-Loop Driven Prion Protein mRNA Translation in H4 Neuroglioblastoma Cells. [Related pubchem assays: 1827 (Project Summary), 1813 (Primary HTS)]; assay type: functional
[13] = inhibitors of SNCA 5'UTR-driven reporter translation, confirmation, H4 neuroglioma cells, luminescence (AID 1988); assay type: functional, cell-based
[14] = A549 cell cytotoxicity, dose response, cytotoxicity control, plate reader, cherry-pick, antagonist series (AID 743412); assay type: functional, cell-based
[15] = LGR2 antagonists, dose response, cell-based, HEK293, CRE-luciferase reporter, cherry pick, set 2 (AID 743343); assay type: functional;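 further: transfected cells were stimulated with diluted bursicon conditioned medium after compound addition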
[16] = MC4R antagonists, dose response, counter-screen for LGR2 antagonist project, cell-based, plate reader, cherry pick (AID 743444); assay type: functional;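 further: transfected HEK 293 cells stimulated with alpha-MSH peptide; potency of inhibitors of the alpha-MSH evoked signal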
Caspase-3 = target: T2, Caspase-3 (Homo sapiens, UniProt P42574); assay type: functional;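 further: Dose-response selectivity test against caspase-3 for candidate inhibitors of sentrin-specific proteases (SENPs)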
T2 sequence (P42574 whole entry): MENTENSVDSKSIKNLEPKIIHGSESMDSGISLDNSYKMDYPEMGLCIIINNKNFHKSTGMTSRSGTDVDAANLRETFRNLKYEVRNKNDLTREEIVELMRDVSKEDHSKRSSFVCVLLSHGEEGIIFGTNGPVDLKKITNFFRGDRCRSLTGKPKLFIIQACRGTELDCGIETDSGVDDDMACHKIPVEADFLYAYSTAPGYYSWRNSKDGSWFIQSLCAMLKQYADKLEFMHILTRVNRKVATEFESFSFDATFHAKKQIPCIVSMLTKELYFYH

[17] = target: T3, Sentrin-specific protease 7 (Homo sapiens, UniProt Q9BQF6); assay type: functional;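 further: Luminescence-based dose-response confirmation of ultra-high-throughput screening hits, measuring inhibition of SENP7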
T3 sequence (Q9BQF6 whole entry): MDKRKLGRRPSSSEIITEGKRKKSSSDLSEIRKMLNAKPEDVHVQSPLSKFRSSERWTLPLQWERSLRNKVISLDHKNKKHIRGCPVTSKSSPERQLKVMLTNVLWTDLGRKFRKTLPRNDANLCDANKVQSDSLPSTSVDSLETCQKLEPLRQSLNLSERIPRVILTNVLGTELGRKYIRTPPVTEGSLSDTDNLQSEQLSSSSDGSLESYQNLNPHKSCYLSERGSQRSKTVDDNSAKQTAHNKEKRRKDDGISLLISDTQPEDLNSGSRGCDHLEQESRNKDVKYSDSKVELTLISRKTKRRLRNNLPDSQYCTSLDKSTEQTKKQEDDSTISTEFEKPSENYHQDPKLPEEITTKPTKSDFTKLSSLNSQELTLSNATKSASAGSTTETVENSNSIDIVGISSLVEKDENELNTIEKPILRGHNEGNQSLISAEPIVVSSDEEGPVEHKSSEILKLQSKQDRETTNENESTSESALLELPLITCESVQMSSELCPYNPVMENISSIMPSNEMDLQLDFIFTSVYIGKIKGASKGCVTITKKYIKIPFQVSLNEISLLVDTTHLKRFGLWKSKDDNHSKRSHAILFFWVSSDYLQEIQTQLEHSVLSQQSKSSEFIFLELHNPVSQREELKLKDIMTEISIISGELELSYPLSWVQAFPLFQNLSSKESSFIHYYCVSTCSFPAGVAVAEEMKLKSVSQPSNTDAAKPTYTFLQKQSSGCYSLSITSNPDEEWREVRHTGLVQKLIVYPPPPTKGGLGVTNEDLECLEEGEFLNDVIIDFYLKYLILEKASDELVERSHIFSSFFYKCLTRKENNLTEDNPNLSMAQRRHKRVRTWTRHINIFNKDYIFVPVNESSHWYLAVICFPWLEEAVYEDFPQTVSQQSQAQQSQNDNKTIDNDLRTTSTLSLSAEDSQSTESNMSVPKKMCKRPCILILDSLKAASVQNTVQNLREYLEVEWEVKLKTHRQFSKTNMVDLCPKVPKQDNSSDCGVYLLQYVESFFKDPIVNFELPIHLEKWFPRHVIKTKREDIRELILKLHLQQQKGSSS

[18] = target: T4, Sentrin-specific protease 6 (Homo sapiens, UniProt Q9GZR1); assay type: functional;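 further: Luminescence-based dose-response confirmatory assay of SENP6 inhibition, following up an ultra-high-throughput screen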
T4 sequence (Q9GZR1 whole entry): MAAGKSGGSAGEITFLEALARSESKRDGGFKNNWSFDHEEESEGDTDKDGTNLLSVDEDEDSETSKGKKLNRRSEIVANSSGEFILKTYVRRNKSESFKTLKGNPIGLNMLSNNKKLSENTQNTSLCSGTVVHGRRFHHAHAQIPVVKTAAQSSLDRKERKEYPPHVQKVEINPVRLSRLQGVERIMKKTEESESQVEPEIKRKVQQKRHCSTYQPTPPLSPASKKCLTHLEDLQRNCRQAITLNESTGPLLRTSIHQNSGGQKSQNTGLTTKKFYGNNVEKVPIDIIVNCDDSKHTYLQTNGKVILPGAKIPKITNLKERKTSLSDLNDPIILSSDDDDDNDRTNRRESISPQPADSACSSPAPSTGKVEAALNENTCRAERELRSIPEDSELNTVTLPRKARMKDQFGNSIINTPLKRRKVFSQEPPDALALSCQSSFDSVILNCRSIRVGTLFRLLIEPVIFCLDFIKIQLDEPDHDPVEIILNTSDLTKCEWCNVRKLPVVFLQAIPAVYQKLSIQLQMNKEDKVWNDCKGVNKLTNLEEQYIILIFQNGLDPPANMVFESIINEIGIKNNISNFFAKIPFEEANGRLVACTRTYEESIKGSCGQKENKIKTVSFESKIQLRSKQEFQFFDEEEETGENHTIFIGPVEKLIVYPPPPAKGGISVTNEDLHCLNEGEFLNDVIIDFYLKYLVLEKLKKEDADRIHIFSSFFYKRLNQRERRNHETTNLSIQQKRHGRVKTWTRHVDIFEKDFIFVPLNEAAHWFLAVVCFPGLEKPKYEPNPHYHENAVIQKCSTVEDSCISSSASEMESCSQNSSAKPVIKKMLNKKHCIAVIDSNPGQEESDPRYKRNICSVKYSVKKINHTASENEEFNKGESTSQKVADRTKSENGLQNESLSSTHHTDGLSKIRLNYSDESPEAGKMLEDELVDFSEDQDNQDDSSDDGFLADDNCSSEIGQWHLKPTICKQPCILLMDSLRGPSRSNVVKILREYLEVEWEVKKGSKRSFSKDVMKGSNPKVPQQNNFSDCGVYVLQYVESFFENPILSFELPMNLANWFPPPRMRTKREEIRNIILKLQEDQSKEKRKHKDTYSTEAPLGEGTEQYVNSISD

[19] = target: T5, Sentrin-specific protease 8 (Homo sapiens, UniProt Q96LD8); assay type: functional;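 further: luminescence read-out of SENP8 inhibition, dose-response confirmation following an ultra-high-throughput screen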
T5 sequence (Q96LD8 whole entry): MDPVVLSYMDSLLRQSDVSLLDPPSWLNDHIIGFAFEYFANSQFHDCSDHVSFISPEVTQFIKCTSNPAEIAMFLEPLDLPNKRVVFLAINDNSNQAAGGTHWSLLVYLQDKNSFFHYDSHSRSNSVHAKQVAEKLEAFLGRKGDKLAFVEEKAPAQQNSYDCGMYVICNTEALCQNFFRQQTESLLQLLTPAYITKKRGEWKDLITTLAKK

[20] = HepG2 cell cytotoxicity, dose response, cytotoxicity control, plate reader, cherry-pick, antagonist series (AID 743416); assay type: functional, cell-based
[21] = HeLa 2N DNA content increase, dose response, cell-based, IC50 (AID 1117349); assay type: functional
[22] = HeLa 4N DNA content increase, dose response, cell-based, IC50 (AID 1117351); assay type: functional
[23] = intracellular Trypanosoma cruzi inhibitors in host cells – cell-based, plate reader, cherry-pick samples, set 3, dose response (AID 651818); assay type: functional;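 further: compounds incubated with infected cells for about four days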
Estrogen receptor beta [24] = target: T6, Estrogen receptor beta (Homo sapiens, UniProt Q92731);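 further: recombinant ER-beta bound to coactivator SRC1 peptide in presence of estradiol agonist; inhibitors block coactivator peptide binding and lower the FRET signal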
Estrogen receptor beta [25] = target: T6, Estrogen receptor beta; assay: ERβ–SRC-3 coactivator interaction inhibitors, confirmation, orthogonal assay, biochemical, ELISA, streptavidin-HRP readout (AID 1060)

Sequence of Paired box protein Pax-8 (Q06710 whole entry): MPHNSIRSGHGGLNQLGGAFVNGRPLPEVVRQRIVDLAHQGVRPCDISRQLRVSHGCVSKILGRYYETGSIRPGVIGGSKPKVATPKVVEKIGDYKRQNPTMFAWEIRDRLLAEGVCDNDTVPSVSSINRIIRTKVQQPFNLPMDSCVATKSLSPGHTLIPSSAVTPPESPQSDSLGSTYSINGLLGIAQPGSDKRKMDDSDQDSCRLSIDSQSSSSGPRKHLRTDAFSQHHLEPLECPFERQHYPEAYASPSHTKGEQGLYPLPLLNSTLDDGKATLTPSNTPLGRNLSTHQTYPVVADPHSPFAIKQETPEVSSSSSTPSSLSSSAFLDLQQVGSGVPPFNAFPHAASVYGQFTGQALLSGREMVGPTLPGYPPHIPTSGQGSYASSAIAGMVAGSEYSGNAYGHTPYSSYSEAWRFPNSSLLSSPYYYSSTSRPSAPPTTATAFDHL
T6 sequence (Q92731 whole entry): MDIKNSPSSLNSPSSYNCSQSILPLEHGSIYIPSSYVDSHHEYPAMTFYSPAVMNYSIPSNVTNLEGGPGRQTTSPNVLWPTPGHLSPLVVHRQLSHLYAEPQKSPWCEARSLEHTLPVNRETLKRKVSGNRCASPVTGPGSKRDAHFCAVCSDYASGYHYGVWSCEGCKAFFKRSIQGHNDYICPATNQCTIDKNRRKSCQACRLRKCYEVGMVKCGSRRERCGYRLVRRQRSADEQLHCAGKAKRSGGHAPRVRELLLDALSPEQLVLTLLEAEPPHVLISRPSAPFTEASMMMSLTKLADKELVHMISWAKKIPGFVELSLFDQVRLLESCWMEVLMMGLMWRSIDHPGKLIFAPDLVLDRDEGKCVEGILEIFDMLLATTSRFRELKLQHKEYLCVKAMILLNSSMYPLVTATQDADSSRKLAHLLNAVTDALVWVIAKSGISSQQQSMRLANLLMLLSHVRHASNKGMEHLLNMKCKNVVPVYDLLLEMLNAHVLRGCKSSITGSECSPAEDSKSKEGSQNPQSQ

Structure (SMILES): CN(C)CCCn1c(SCC(=O)N2c3ccccc3Sc3ccccc32)nc2ccccc2c1=O
- EC50 [1]: 0.268 µM (active)
- EC50 [2]: 5.64 µM (active)
- EC50 [3]: > 60 µM (not active)
- EC50 [4]: 4.73 µM (active)
- AC50 [5]: 17.1 µM (active)

Structure (SMILES): C[C@@H]1CCCCO[C@@H](CN(C)S(=O)(=O)c2ccc(F)cc2)[C@@H](C)CN([C@@H](C)CO)C(=O)c2cc(N(C)C)ccc2O1
- AC50 [6]: 2.56 µM (active)

Structure (SMILES): C[C@@H]1CN([C@H](C)CO)C(=O)c2cccc(NC(=O)c3ccc(-c4nccs4)cc3)c2O[C@H]1CN(C)C(=O)Nc1ccc(C(F)(F)F)cc1
- AC50 [6]: 7.49 µM (active)

Structure (SMILES): O=C(Nc1ccc(F)cc1)N1C[C@@H]2N[C@H](C1)[C@@H]2c1ccc(/C=C/c2ccccc2)cc1
- AC50 (Paired box protein Pax-8): 10.7 µM (active)
- AC50 [7]: 23.6 µM (active)
- AC50 [8]: 26 µM (active)

Structure (SMILES): Cc1ccc(S(=O)(=O)N(C)C[C@H]2Oc3cc(C#Cc4ccncc4)ccc3S(=O)(=O)N([C@@H](C)CO)C[C@H]2C)cc1
- AC50 (Paired box protein Pax-8): 3.15 µM (active)
- AC50 [9]: 51.6 µM (active)
- AC50 [10]: 4.57 µM (active)
- AC50 [11]: 45.3 µM (active)
- AC50 [8]: 30.8 µM (active)

Structure (SMILES): Cc1cnc(NC(=O)COc2ccccc2Cl)s1
- EC50 [12]: 0.491 µM (active)
- EC50 [13]: 1.25 µM (active)
- AC50 [14]: > 52 µM (inactive)
- AC50 [15]: 2.33 µM (active)
- AC50 [16]: 2.3 µM (active)

Structure (SMILES): O=S(=O)(c1cccs1)N1CCCCN2[C@H](CO)[C@H](c3ccc(/C=C/c4ccccc4)cc3)[C@H]2C1
- AC50 [6]: 3.42 µM (active)

Structure (SMILES): COc1ccc(C(=O)Nc2ccc3ccccc3n2)c(OC)c1OC
- IC50 (Caspase-3): 6.1 µM (active)
- IC50 [17]: 2.37 µM (active)
- IC50 [18]: 2.95 µM (active)
- IC50 [19]: > 100 µM (inactive)
- AC50 [14]: > 52 µM (inactive)
- AC50 [20]: > 52 µM (inactive)
- AC50 [15]: 7.06 µM (active)
- AC50 [16]: 6.75 µM (active)

Structure (SMILES): CO[C@@H]1[C@@H](OC)[C@H](C)[C@@](O)(CC(=O)O)O[C@H]1[C@H](C)[C@H]1O[C@@]2(CC[C@@](C)([C@H]3CC[C@@](C)([C@@H]4O[C@@H]([C@H]5O[C@](C)(O)[C@H](C)C[C@@H]5C)C[C@@H]4OC4C[C@H](OC)[C@@H](OC)[C@H](C)O4)O3)O2)C[C@H](O)[C@H]1C (stereo not given in full)
- IC50 [21]: > 10 µM (inactive)
- IC50 [22]: > 10 µM (inactive)

Structure (SMILES): COc1ccc(-c2ccccc2[C@@H]2[C@@H](C#N)N(C(=O)NC3CCCCC3)[C@H]2CO)cc1
- AC50 [6]: 7.06 µM (active)

Structure (SMILES): COc1ccc(S(=O)(=O)N(C)C[C@H]2Oc3c(NC(=O)Nc4ccc(C(F)(F)F)cc4)cccc3C(=O)N([C@@H](C)CO)C[C@H]2C)cc1
- AC50 [23]: 7.67 µM (active)
- AC50 (Paired box protein Pax-8): 7.04 µM (active)
- AC50 [10]: 66.2 µM (active)
- AC50 [7]: 51 µM (active)

Structure (SMILES): O=S(=O)(NCC(O)COCc1ccco1)c1cccs1 (stereo not given)
- IC50 (Estrogen receptor beta [24]): 20.6 µM (active)
- IC50 (Estrogen receptor beta [25]): 14 µM (not active)

Structure (SMILES): CC(=O)Nc1ccn(C2COC(COC(=O)c3ccccc3)O2)c(=O)n1 (stereo not given)
- IC50 [21]: > 10 µM (inactive)
- IC50 [22]: > 10 µM (inactive)
